Molecular target: T1, Human plasma renin (Homo sapiens, UniProt P00797)
T1 construct: from tissue; host or cells: human plasma
T1 sequence (P00797 67-406): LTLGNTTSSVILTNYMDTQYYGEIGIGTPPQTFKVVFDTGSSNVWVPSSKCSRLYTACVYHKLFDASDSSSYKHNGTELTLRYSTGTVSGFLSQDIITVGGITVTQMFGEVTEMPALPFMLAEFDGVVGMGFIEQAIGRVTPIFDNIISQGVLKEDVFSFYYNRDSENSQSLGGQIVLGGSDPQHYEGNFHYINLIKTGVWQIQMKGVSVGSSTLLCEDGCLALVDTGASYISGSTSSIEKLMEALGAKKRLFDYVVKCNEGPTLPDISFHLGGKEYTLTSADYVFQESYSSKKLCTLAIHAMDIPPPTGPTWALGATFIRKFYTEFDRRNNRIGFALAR
Assay: Human plasma renin inhibiting activities (angiotensin I measured by radio immunoassay)
Assay type: biochemical
Details: pH7.4, 37° C., one hour, read-out: 50% inhibition concentration IC50
Method: To 156 μl of a 0.2M sodium phosphate buffer solution (pH7.4), 40 μl of a solution mixture of 43 mM 8-hydroxyquinoline and 100 mM disodium ethylenediamine tetraacetate, 4 μl of dimethyl sulfoxide or a dimethyl sulfoxide solution of an inhibitor and 200 μl of human plasma were added and reacted at 37° C. for one hour. Then, pepstatin was added thereto to terminate the reaction, and the amount of the resulting angiotension I was measured by radio immunoassay whereby the inhibiting activity was determined.

Row | SMILES | IC50 [nM]
1 | CCCC[C@H](NC(=O)[C@H](Cc1cccc2ccccc12)NC(=O)OCc1ccccc1)C(=O)N[C@@H](CC(C)C)[C@@H](O)/C=C/C(=O)NCC(C)C [Compound A, (4S,5S)-5-(L-N-benzyloxycarbonylnaphthylalanyl-L-norleucyl)amino-4-hydroxy-7-methyl-2(E)-octenoic acid isobutylamide] | 1400
2 | CCCC[C@H](NC(=O)[C@H](Cc1cccc2ccccc12)NC(=O)OCc1ccccc1)C(=O)N[C@@H](CC(C)C)[C@@H](O)/C=C(\CCC)C(=O)NCC(C)C [Compound D, (4S,5S)-5-(L-N-benzyloxycarbonylnaphthylalanyl-L-norleucyl)amino-4-hydroxy-2-propyl-7-methyl-2(E)-octenoic acid isobutylamide] | 120
3 | CCCC[C@H](NC(=O)[C@H](Cc1cccc2ccccc12)NC(=O)OCc1ccccc1)C(=O)N[C@@H](CC(C)C)[C@@H](O)/C=C(/C(=O)NCC(C)C)C(C)C [Compound F, (4S,5S)-5-(L-N-benzyloxycarbonylnaphthylalanyl-L-norleucyl)amino-4-hydroxy-2-isopropyl-7-methyl-2(E)-octenoic acid isobutylamide] | 150
4 | CCCC[C@H](NC(=O)[C@H](Cc1cccc2ccccc12)NC(=O)OCc1ccccc1)C(=O)N[C@@H](CC(C)C)[C@@H](O)/C=C(\C(=O)NCC(C)C)C(C)C [Compound G, (4S,5S)-5-(L-N-benzyloxycarbonylnaphthylalanyl-L-norleucyl)amino-4-hydroxy-2-isopropyl-7-methyl-2(Z)-octenoic acid isobutylamide] | 260
5 | CCCC[C@H](NC(=O)[C@H](Cc1cccc2ccccc12)NC(=O)OCc1ccccc1)C(=O)N[C@@H](CC(C)C)[C@@H](O)/C=C(\CCCO)C(=O)NCC(C)C [Compound H, (4S,5S)-5-(L-N-benzyloxycarbonylnaphthylalanyl-L-norleucyl)-amino-4-hydroxy-2-(3-hydroxypropyl)-7-methyl-2(E)-octenoic acid isobutylamide] | 160

Further lines, results first:

Row | IC50 [nM] | SMILES
6 | 19 | CCCC[C@H](NC(=O)[C@H](Cc1cccc2ccccc12)NC(=O)OCc1ccccc1)C(=O)N[C@@H](CC(C)C)[C@@H](O)/C=C(\CC)C(=O)NCC(C)C [Compound B, (4S,5S)-5-(L-N-benzyloxycarbonylnaphthylalanyl-L-norleucyl)amino-4-hydroxy-2-ethyl-7-methyl-2(E)-octenoic acid isobutylamide]
7 | 67 | CCCC[C@H](NC(=O)[C@H](Cc1cccc2ccccc12)NC(=O)OCc1ccccc1)C(=O)N[C@@H](CC(C)C)[C@@H](O)/C=C(/CC)C(=O)NCC(C)C [Compound C, (4S,5S)-5-(L-N-benzyloxycarbonylnaphthylalanyl-L-norleucyl)amino-2-ethyl-4-hydroxy-7-methyl-2(Z)-octenoic acid isobutylamide]
8 | 310 | CCCC[C@H](NC(=O)[C@H](Cc1cccc2ccccc12)NC(=O)OCc1ccccc1)C(=O)N[C@@H](CC(C)C)[C@@H](O)/C=C(/CCC)C(=O)NCC(C)C [Compound E, (4S,5S)-5-(L-N-benzyloxycarbonylnaphthylalanyl-L-norleucyl)amino-4-hydroxy-2-propyl-7-methyl-2(Z)-octenoic acid isobutylamide]

— patent US4927565A, “5-substituted amino-4-hydroxy-pentenoic acid derivatives and their use” (Banyu Pharmaceutical Co., Ltd., priority 1986, dated 1990)
